Results: patent US20250250285A1, “IRON-ACTIVABLE NITROGEN-CONTAINING DERIVATIVES OF SALINOMYCIN AND NARASIN, SYNTHESIS AND USE FOR THE TREATMENT OF CANCERS” (Centre National de la Recherche Scientifique, priority 2021, published 2025)
Where two headings read alike, the source gives them in different places.

Key:
[1] = system: PDAC211T; assay: Cell viability (CellTiter-Blue), IC50 on PDAC211T; format: cell-based, human; conditions: 72 h treatment
Protocol: (§2) Cell viability was evaluated by plating 4000 cells/well in 96-well plates using CellTiter-Blue viability assay according to the manufacturer's protocol. […] CellTiter-Blue reagent (Promega, G8081) was added after 72 h treatment and cells were incubated for 2 h before recording fluorescence intensities (ex. 560 nm; em. 590 nm) using a Perkin Elmer Wallac 1420 Victor2 Microplate Reader.

[2] = system: PDAC090T; assay: Cell viability (CellTiter-Blue), IC50 on PDAC090T; format: cell-based, human; conditions: 72 h treatment
Protocol: as §2

[3] = system: HMLER CD44^low/CD24^high cells; assay: IC50 on control epithelial HMLER CD44low/CD24high cells; format: cell-based, human
From the text: (§1) The inventors also evaluated the biological activity of prodrugs and parent structures against transformed human mammary epithelial HMLER CD44^high/CD24^low cells, a model of human breast cancer stem cells stable in the mesenchymal state, and against control epithelial HMLER CD44^low/CD24^high cells.

[4] = system: MCF10A; assay: IC50 on nontumorigenic epithelial breast cell MCF10A; conditions: for toxicity toward nontumorigenic epithelial cells compared with respective parent compound: in words, versus parent compound
Protocol: as §2
In addition to the above distinct patient-derived pancreatic ductal adenocarcinoma (PDAC) cell lines, the compounds were also evaluated against nontumorigenic epithelial breast cell MCF10A.

[5] = system: HMLER CD44^high/CD24^low cells; assay: IC50 on HMLER CD44high/CD24low cells (breast cancer stem cell model); format: cell-based, human; conditions: mesenchymal state
From the text: as §1

[6] = system: PDAC053T; assay: Cell viability (CellTiter-Blue), IC50 on PDAC053T; format: cell-based, human; conditions: for IC50: PDAC053T, 72 h treatment, CellTiter-Blue
Protocol: PDAC053T cells were a generous gift from Juan Iovanna (INSERM) and cultured in serum-free ductal medium as published before (Gastroenterology. 2004, 127(1):250-260). Liproxstatin-1 (Sigma Aldrich, Cat #SML1414) was used at a concentration of 1 μM.

[7] = system: PDAC085T; assay: Cell viability (CellTiter-Blue), IC50 on PDAC085T; format: cell-based, human; conditions: 72 h treatment
Protocol: as §2

[8] = system: PDAC030T; assay: Cell viability (CellTiter-Blue), IC50 on PDAC030T; format: cell-based, human; conditions: 72 h treatment
Protocol: as §2

[9] = MCF10A nontumorigenic epithelial breast cell

| Compound | IC50 [1] [nM] | IC50 [2] [nM] | IC50 [3] [nM] | IC50 [4, 9] [nM] | IC50 [5] [nM] | IC50 [6] [nM] | IC50 [7] [nM] | IC50 [8] [nM] | IC50 ([1]; Homo sapiens) [nM] | IC50 ([2]; Homo sapiens) [nM] | IC50 ([3]; Homo sapiens) [nM] | IC50 ([4]; Homo sapiens, MCF-10A) [nM] | IC50 ([5]; Homo sapiens) [nM] | IC50 ([6]; Homo sapiens) [nM] | IC50 ([7]; Homo sapiens) [nM] | IC50 ([8]; Homo sapiens) [nM] | toxicity toward nontumorigenic epithelial cells compared with respective parent compound [4] | potency compared with Nar-AM23 ([6]; PDAC053T cells, in words) |
| --- | --- | --- | --- | --- | --- | --- | --- | --- | --- | --- | --- | --- | --- | --- | --- | --- | --- | --- |
| C#CCN[C@@H]1C=C[C@]2(O[C@H]([C@@H](CC)C(=O)[C@@H](C)[C@@H](O)[C@H](C)C3O[C@@H](C(CC)C(=O)OC)CC[C@@H]3C)[C@@H](C)C[C@H]2C)O[C@@]12CC[C@@](C)([C@H]1CC[C@](O)(CC)[C@H](C)O1)O2 (some centres unmarked) [AM9, C1 Methyl Ester of Ironomycin, reference compound] | 5010 | 5890 | 15200 | 12200 | 13200 | 7460 | 8880 | 5670 | – | – | – | – | – | – | – | – | – | – |
| C[C@H]1[C@@H](O)O[C@@H]2O[C@@]3(C)CC[C@H]4[C@H](C)CC[C@@H]1[C@@]24OO3 [DHA, dihydroartemisinin, reference compound] | – | – | – | – | – | – | – | – | 10300 | 35400 | 14200 | 5450 | 2850 | > 50000 | 21600 | 8080 | – | – |
| C#CCN[C@@H]1C=C[C@]2(O[C@H]([C@@H](CC)C(=O)[C@@H](C)[C@@H](O)[C@H](C)[C@@H]3O[C@@H]([C@@H](CC)C(=O)O)CC[C@@H]3C)[C@@H](C)C[C@H]2C)O[C@@]12CC[C@@](C)([C@H]1CC[C@](O)(CC)[C@H](C)O1)O2 [Ironomycin, reference compound] | 180 | 630 | 1790 | 120 | 160 | 2600 | 720 | 2670 | – | – | – | – | – | – | – | – | – | – |
| CC[C@@H](C(=O)[C@@H](C)[C@@H](O)[C@H](C)[C@@H]1O[C@@H]([C@@H](CC)C(=O)OC2O[C@@H]3O[C@]4(C)CC[C@H]5[C@H](C)CC[C@@H]([C@H]2C)[C@@]35OO4)CC[C@@H]1C)[C@H]1O[C@]2(C=C[C@@H](O)[C@]3(CC[C@@](C)([C@H]4CC[C@](O)(CC)[C@H](C)O4)O3)O2)[C@H](C)C[C@@H]1C (some centres unmarked) [MA-I-023, Salinomycin-dihydroartemisinin prodrug] | – | – | – | – | – | – | – | – | 3130 | 4530 | 820 | – | 480 | 3880 | 3320 | 750 | – | – |
| C#CCN[C@@H]1C=C[C@]2(O[C@H]([C@@H](CC)C(=O)[C@@H](C)[C@@H](O)[C@H](C)[C@@H]3O[C@@H]([C@@H](CC)C(=O)OC4O[C@@H]5O[C@]6(C)CC[C@H]7[C@H](C)CC[C@@H]([C@H]4C)[C@@]57OO6)CC[C@@H]3C)[C@@H](C)C[C@H]2C)O[C@@]12CC[C@@](C)([C@H]1CC[C@](O)(CC)[C@H](C)O1)O2 (some centres unmarked) [MA-I-062, Ironomycin-dihydroartemisinin prodrug] | – | – | – | – | – | – | – | – | 100 | 2190 | 480 | 2030 | 160 | 1790 | 1170 | 500 | less toxic | – |
| CC[C@@H](C(=O)OC1O[C@@H]2O[C@]3(C)CC[C@H]4[C@H](C)CC[C@@H]([C@H]1C)[C@@]24OO3)[C@@H]1O[C@@H]([C@@H](C)[C@H](O)[C@H](C)C(=O)[C@H](CC)[C@H]2O[C@]3(C=C[C@@H](O)[C@]4(CC[C@@](C)([C@H]5CC[C@](O)(CC)[C@H](C)O5)O4)O3)[C@H](C)C[C@@H]2C)[C@@H](C)C[C@@H]1C (some centres unmarked) [MA-I-081, narasin-dihydroartemisinin prodrug] | – | – | – | – | – | – | – | – | 450 | 740 | 500 | – | 190 | 540 | 440 | 90 | – | – |
| CC[C@@H](C(=O)OC1O[C@@H]2O[C@]3(C)CC[C@H]4[C@H](C)CC[C@@H]([C@H]1C)[C@@]24OO3)[C@@H]1O[C@@H]([C@@H](C)[C@H](O)[C@H](C)C(=O)[C@H](CC)[C@H]2O[C@]3(C=C[C@@H](NC4CC4)[C@]4(CC[C@@](C)([C@H]5CC[C@](O)(CC)[C@H](C)O5)O4)O3)[C@H](C)C[C@@H]2C)[C@@H](C)C[C@@H]1C (some centres unmarked) [MA-I-095, C20-cyclopropylaminonarasin-dihydroartemisinin prodrug] | – | – | – | – | – | – | – | – | 490 | 180 | 1960 | 5240 | 760 | 90 | 70 | 120 | less toxic | more potent |
| C#CCN[C@H]1C=C[C@]2(O[C@H]([C@@H](CC)C(=O)[C@@H](C)[C@@H](O)[C@H](C)[C@@H]3O[C@@H]([C@@H](CC)C(=O)OC4O[C@@H]5O[C@]6(C)CC[C@H]7[C@H](C)CC[C@@H]([C@H]4C)[C@@]57OO6)CC[C@@H]3C)[C@@H](C)C[C@H]2C)O[C@@]12CC[C@@](C)([C@H]1CC[C@](O)(CC)[C@H](C)O1)O2 (some centres unmarked) [MA-I-096] | – | – | – | – | – | – | – | – | 330 | 690 | 360 | 1370 | 200 | 520 | 360 | 90 | – | – |
| CC[C@@H](C(=O)O)[C@@H]1O[C@@H]([C@@H](C)[C@H](O)[C@H](C)C(=O)[C@H](CC)[C@H]2O[C@]3(C=C[C@@H](O)[C@]4(CC[C@@](C)([C@H]5CC[C@](O)(CC)[C@H](C)O5)O4)O3)[C@H](C)C[C@@H]2C)[C@@H](C)C[C@@H]1C [Narasin] | – | – | – | – | – | – | – | – | 730 | 1160 | 2960 | 790 | 450 | 2000 | 500 | 1180 | – | – |
| CC[C@@H](C(=O)[C@@H](C)[C@@H](O)[C@H](C)[C@@H]1O[C@@H]([C@@H](CC)C(=O)O)CC[C@@H]1C)[C@H]1O[C@]2(C=C[C@@H](O)[C@]3(CC[C@@](C)([C@H]4CC[C@](O)(CC)[C@H](C)O4)O3)O2)[C@H](C)C[C@@H]1C [Salinomycin] | – | – | – | – | – | – | – | – | 1290 | 2660 | 4360 | 1130 | 1380 | 4500 | 1560 | 1610 | – | – |
| C20-cyclopropylaminosalinomycin [AM23, reference compound] | 40 | 210 | 500 | 300 | 10 | 830 | 360 | 110 | – | – | – | – | – | – | – | – | – | – |
| C20-cyclopropyloaminonarasin [Nar-AM23] | 50 | 320 | 450 | 100 | 10 | 200 | 40 | 60 | – | – | – | – | – | – | – | – | – | – |
| C20-epi-ironomycin [Epi-AM5] | 1480 | 4160 | 11800 | 1340 | 1800 | 2170 | 670 | 2870 | – | – | – | – | – | – | – | – | – | – |
| C20-propargyloaminonarasin [Nar-AM5] | 220 | 800 | 1080 | 220 | 110 | 880 | 120 | 220 | – | – | – | – | – | – | – | – | – | – |
